The values below come from PubChem BioAssay AID1259407 (Chemical Carcinogenesis Research Information System (CCRIS), 2018).

The source made the active and inactive calls. The rule behind the calls is not given here.

In this data set the test system is CCRIS mutagenicity, Ames/micronucleus/aberration tests. Nature of the data set: CCRIS mutagenicity studies.
[1] abbreviates: Test System: AMES SALMONELLA TYPHIMURIUM, Strain/Indicator: TA98, Metabolic Activation: NONE, Method: PREINCUBATION
Setting [2] is: Test System: AMES SALMONELLA TYPHIMURIUM, Strain/Indicator: TA100, Metabolic Activation: NONE, Method: PREINCUBATION
The mark [3] stands for this setting: Test System: AMES SALMONELLA TYPHIMURIUM, Strain/Indicator: TA98, Metabolic Activation: RAT, LIVER, S-9, AROCLOR 1254, Method: PREINCUBATION
Setting [4] is: Test System: AMES SALMONELLA TYPHIMURIUM, Strain/Indicator: TA100, Metabolic Activation: NONE, Method: STANDARD PLATE.
Where [5] appears, read: Test System: AMES SALMONELLA TYPHIMURIUM, Strain/Indicator: TA100, Metabolic Activation: RAT, LIVER, S-9, AROCLOR 1254, Method: PREINCUBATION

Take `BrCC(Br)C1CCC(Br)C(Br)C1` (configuration not stated): the mutagenic call (End Point: IN VITRO CHROMOSOMAL ABERRATIONS, Test System: CHINESE HAMSTER LUNG CELLS (CHL), Metabolic Activation: NONE) was “inactive; negative”; the mutagenic call (End Point: IN VITRO CHROMOSOMAL ABERRATIONS, Test System: CHINESE HAMSTER LUNG CELLS (CHL), Metabolic Activation: RAT, LIVER, S-9, KC-400) was “active; positive (structural changes)”; the mutagenic call (End Point: IN VITRO CHROMOSOMAL ABERRATIONS, Test System: CHINESE HAMSTER OVARY CELLS (CHO), Metabolic Activation: NONE) was “inactive; negative”; the mutagenic call (End Point: IN VITRO CHROMOSOMAL ABERRATIONS, Test System: CHINESE HAMSTER OVARY CELLS (CHO), Metabolic Activation: RAT, LIVER, S-9, AROCLOR 1254) is “inactive; negative”; the mutagenic call (End Point: IN VITRO CHROMOSOMAL ABERRATIONS, Test System: CHO CELLS, Metabolic Activation: NONE) was “inactive; negative”; the mutagenic call (End Point: IN VITRO CHROMOSOMAL ABERRATIONS, Test System: CHO CELLS, Metabolic Activation: RAT, LIVER, S-9, AROCLOR 1254) was “inactive; negative”. Also, the mutagenic call is “inactive; negative” (Test System: AMES SALMONELLA TYPHIMURIUM, Strain/Indicator: TA98, Metabolic Activation: HAMSTER, LIVER, S-9, AROCLOR 1254 (10%), Method: PREINCUBATION); “inactive; negative” under setting [1]; “inactive; negative” (Test System: AMES SALMONELLA TYPHIMURIUM, Strain/Indicator: TA98, Metabolic Activation: RAT, LIVER, S-9, AROCLOR 1254 (10%), Method: PREINCUBATION); “inactive; negative” (Test System: AMES SALMONELLA TYPHIMURIUM, Strain/Indicator: TA100, Metabolic Activation: HAMSTER, LIVER, S-9, AROCLOR 1254 (10%), Method: PREINCUBATION); “inactive; negative” under setting [2]; “inactive; negative” (Test System: AMES SALMONELLA TYPHIMURIUM, Strain/Indicator: TA100, Metabolic Activation: RAT, LIVER, S-9, AROCLOR 1254 (10%), Method: PREINCUBATION). In addition, the mutagenic call (Test System: AMES SALMONELLA TYPHIMURIUM, Strain/Indicator: TA1535, Metabolic Activation: HAMSTER, LIVER, S-9, AROCLOR 1254 (10%), Method: PREINCUBATION) is “inactive; negative”; the mutagenic call (Test System: AMES SALMONELLA TYPHIMURIUM, Strain/Indicator: TA1535, Metabolic Activation: NONE, Method: PREINCUBATION) is “inactive; negative”; the mutagenic call (Test System: AMES SALMONELLA TYPHIMURIUM, Strain/Indicator: TA1535, Metabolic Activation: RAT, LIVER, S-9, AROCLOR 1254 (10%), Method: PREINCUBATION) is “inactive; negative”; the mutagenic call (Test System: AMES SALMONELLA TYPHIMURIUM, Strain/Indicator: TA1537, Metabolic Activation: HAMSTER, LIVER, S-9, AROCLOR 1254 (10%), Method: PREINCUBATION) is “inactive; negative”; the mutagenic call (Test System: AMES SALMONELLA TYPHIMURIUM, Strain/Indicator: TA1537, Metabolic Activation: NONE, Method: PREINCUBATION) was “inactive; negative”; the mutagenic call (Test System: AMES SALMONELLA TYPHIMURIUM, Strain/Indicator: TA1537, Metabolic Activation: RAT, LIVER, S-9, AROCLOR 1254 (10%), Method: PREINCUBATION) was “inactive; negative”. The mutagenic call (Test System: MOUSE LYMPHOMA, Strain/Indicator: L5178Y (TK+/TK-), Metabolic Activation: NONE, Method: SUSPENSION/PLATE) is “active; positive”.
For the molecule `COc1cc2c(cc1OC)-c1c3c(cc4c1[C@H](C2)N(C)CC4)OCO3`, the mutagenic call is “active; positive” (Test System: AMES SALMONELLA TYPHIMURIUM, Strain/Indicator: TA98, Metabolic Activation: RAT, LIVER, S-9, PHENOBARBITAL AND BETA-NAPHTHOFLAVONE, Method: PREINCUBATION) and “active; positive” (Test System: AMES SALMONELLA TYPHIMURIUM, Strain/Indicator: TA100, Metabolic Activation: RAT, LIVER, S-9, PHENOBARBITAL AND BETA-NAPHTHOFLAVONE, Method: PREINCUBATION).
Regarding `C=CC(=O)N(CC1CO1)CC1CO1` (configuration not stated), the mutagenic call runs as follows: under setting [1], “active; positive”; (Test System: AMES SALMONELLA TYPHIMURIUM, Strain/Indicator: TA98, Metabolic Activation: NONE, Method: STANDARD PLATE) “active; positive”; under setting [3], “inactive; negative”; (Test System: AMES SALMONELLA TYPHIMURIUM, Strain/Indicator: TA98, Metabolic Activation: RAT, LIVER, S-9, AROCLOR 1254, Method: STANDARD PLATE) “active; positive”; under setting [2], “active; positive”; under setting [4], “active; positive”. Moreover, the mutagenic call under setting [5] was “active; positive” and the mutagenic call (Test System: AMES SALMONELLA TYPHIMURIUM, Strain/Indicator: TA100, Metabolic Activation: RAT, LIVER, S-9, AROCLOR 1254, Method: STANDARD PLATE) was “active; positive”.
For `CC(=O)NC[C@H](O)COc1cccc2ccccc12`, the mutagenic call runs as follows: under setting [3], “inactive; negative”; under setting [5], “inactive; negative”; (Test System: AMES SALMONELLA TYPHIMURIUM, Strain/Indicator: TA104, Metabolic Activation: RAT, LIVER, S-9, AROCLOR 1254, Method: PREINCUBATION) “active; positive”; (Test System: AMES SALMONELLA TYPHIMURIUM, Strain/Indicator: TA1535, Metabolic Activation: RAT, LIVER, S-9, AROCLOR 1254, Method: PREINCUBATION) “inactive; negative”; (Test System: AMES SALMONELLA TYPHIMURIUM, Strain/Indicator: TA1538, Metabolic Activation: RAT, LIVER, S-9, AROCLOR 1254, Method: PREINCUBATION) “inactive; negative”; (Test System: AMES SALMONELLA TYPHIMURIUM, Strain/Indicator: YG1021, Metabolic Activation: RAT, LIVER, S-9, AROCLOR 1254, Method: PREINCUBATION) “inactive; negative”. For the same molecule, the mutagenic call (Test System: AMES SALMONELLA TYPHIMURIUM, Strain/Indicator: YG1024, Metabolic Activation: RAT, LIVER, S-9, AROCLOR 1254, Method: PREINCUBATION) is “inactive; negative”; the mutagenic call (Test System: AMES SALMONELLA TYPHIMURIUM, Strain/Indicator: YG1026, Metabolic Activation: RAT, LIVER, S-9, AROCLOR 1254, Method: PREINCUBATION) was “inactive; negative”; the mutagenic call (Test System: AMES SALMONELLA TYPHIMURIUM, Strain/Indicator: YG1029, Metabolic Activation: RAT, LIVER, S-9, AROCLOR 1254, Method: PREINCUBATION) is “active; positive”; the mutagenic call (Test System: AMES SALMONELLA TYPHIMURIUM, Strain/Indicator: YG1041, Metabolic Activation: RAT, LIVER, S-9, AROCLOR 1254, Method: PREINCUBATION) was “inactive; negative”; the mutagenic call (Test System: AMES SALMONELLA TYPHIMURIUM, Strain/Indicator: YG1042, Metabolic Activation: RAT, LIVER, S-9, AROCLOR 1254, Method: PREINCUBATION) was “inactive; negative”; the mutagenic call (Test System: AMES SALMONELLA TYPHIMURIUM, Strain/Indicator: YG3003, Metabolic Activation: RAT, LIVER, S-9, AROCLOR 1254, Method: PREINCUBATION) was “active; positive”.
In the case of `N#Cc1ccc(CO)cc1`, the mutagenic call under setting [4] is “inactive; negative”.
